ChEMBL document CHEMBL5291721, “A preclinical secondary pharmacology resource illuminates target-adverse drug reaction associations of marketed drugs” (Nat Commun, 2023)

Tests used:
[1] = target: Neuronal acetylcholine receptor subunit alpha-4 (Homo sapiens, UniProt P43681)
[2] = target: T1, Cholecystokinin receptor type A (Homo sapiens, UniProt P32238)
T1 sequence (P32238 whole entry): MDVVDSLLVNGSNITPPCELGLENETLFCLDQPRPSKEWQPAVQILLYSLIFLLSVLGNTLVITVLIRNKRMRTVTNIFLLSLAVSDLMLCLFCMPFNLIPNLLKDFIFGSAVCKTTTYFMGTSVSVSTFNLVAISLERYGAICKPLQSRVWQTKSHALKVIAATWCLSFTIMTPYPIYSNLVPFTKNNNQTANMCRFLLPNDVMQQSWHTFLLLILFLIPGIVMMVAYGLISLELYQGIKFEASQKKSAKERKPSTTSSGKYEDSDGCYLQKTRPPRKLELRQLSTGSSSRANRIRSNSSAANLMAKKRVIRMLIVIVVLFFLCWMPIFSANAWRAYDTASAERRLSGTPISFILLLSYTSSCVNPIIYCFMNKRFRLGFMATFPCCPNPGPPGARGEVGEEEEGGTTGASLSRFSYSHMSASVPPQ

Mu-type opioid receptor = Mu-type opioid receptor (Homo sapiens, UniProt P35372)
Vasopressin V2 receptor = Vasopressin V2 receptor (Homo sapiens, UniProt P30518)
[3] = target: T2, Gastrin/cholecystokinin type B receptor (Homo sapiens, UniProt P32239)
T2 sequence (P32239 whole entry): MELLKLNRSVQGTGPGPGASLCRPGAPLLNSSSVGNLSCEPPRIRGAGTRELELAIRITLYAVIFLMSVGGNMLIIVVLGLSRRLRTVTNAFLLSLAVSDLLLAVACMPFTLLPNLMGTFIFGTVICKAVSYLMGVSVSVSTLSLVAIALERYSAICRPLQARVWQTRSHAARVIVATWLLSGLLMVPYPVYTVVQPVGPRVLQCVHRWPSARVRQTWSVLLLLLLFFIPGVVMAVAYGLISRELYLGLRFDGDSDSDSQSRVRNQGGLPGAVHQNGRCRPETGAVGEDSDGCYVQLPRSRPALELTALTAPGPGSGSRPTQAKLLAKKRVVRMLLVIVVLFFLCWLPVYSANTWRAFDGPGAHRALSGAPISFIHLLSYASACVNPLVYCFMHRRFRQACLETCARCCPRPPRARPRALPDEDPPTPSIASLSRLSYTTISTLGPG

[4] = target: cGMP-inhibited 3',5'-cyclic phosphodiesterase 3A (Homo sapiens, UniProt Q14432); type: functional
Adenosine receptor A1 = target: T3, Adenosine receptor A1 (Homo sapiens, UniProt P30542)
T3 sequence (P30542 whole entry): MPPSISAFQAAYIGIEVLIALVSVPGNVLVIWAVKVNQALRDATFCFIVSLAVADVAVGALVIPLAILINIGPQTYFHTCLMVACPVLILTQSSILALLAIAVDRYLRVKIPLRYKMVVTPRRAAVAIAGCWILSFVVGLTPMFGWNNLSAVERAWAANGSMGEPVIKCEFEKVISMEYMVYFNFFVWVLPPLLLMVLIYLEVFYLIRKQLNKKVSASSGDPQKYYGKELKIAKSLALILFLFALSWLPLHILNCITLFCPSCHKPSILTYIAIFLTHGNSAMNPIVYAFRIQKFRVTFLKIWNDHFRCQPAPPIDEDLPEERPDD

[5] = target: 3',5'-cyclic-AMP phosphodiesterase 4D (Homo sapiens, UniProt Q08499); type: functional
[6] = target: T4, Alpha-2C adrenergic receptor (Homo sapiens, UniProt P18825); type: functional
T4 sequence (P18825 whole entry): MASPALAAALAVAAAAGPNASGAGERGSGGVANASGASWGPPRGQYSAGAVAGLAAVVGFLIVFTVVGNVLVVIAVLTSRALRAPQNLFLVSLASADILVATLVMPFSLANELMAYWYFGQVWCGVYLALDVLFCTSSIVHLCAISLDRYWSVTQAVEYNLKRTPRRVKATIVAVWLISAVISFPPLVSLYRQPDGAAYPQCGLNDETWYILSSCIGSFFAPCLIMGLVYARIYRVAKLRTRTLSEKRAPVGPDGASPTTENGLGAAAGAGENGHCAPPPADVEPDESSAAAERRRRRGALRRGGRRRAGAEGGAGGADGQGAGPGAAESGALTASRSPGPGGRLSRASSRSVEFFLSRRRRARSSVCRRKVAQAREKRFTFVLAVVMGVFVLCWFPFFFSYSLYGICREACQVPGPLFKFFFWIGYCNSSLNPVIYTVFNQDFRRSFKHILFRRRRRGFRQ

Histamine H2 receptor = Histamine H2 receptor (Homo sapiens, UniProt P25021); type: functional, cell-based
[7] = target: T5, 5-hydroxytryptamine receptor 1A (Homo sapiens, UniProt P08908); type: functional, cell-based
T5 sequence (P08908 whole entry): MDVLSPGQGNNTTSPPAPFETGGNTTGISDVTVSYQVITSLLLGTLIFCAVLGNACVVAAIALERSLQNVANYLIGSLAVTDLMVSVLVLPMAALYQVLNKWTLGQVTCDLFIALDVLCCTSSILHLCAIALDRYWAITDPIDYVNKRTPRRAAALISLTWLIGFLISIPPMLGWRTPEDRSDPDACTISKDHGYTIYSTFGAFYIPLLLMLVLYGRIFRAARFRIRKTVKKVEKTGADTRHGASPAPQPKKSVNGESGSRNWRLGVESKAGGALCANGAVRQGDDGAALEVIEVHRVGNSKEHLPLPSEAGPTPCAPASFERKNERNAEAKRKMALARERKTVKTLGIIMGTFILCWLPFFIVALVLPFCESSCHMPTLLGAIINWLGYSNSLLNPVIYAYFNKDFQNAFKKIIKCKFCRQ
Further: assay procedure not described here.

Mu-type opioid receptor, sequence (P35372 whole entry): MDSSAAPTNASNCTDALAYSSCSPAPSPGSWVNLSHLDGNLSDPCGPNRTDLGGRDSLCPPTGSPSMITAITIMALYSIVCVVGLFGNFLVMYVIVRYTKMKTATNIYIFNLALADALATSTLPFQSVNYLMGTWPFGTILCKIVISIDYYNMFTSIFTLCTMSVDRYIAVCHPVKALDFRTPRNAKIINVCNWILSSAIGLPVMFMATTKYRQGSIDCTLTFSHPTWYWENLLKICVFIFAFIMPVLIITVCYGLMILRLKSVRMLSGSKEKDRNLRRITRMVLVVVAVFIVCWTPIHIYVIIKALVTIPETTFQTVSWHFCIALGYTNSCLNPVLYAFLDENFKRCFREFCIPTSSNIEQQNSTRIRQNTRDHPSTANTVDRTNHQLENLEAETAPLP
Vasopressin V2 receptor, sequence (P30518 whole entry): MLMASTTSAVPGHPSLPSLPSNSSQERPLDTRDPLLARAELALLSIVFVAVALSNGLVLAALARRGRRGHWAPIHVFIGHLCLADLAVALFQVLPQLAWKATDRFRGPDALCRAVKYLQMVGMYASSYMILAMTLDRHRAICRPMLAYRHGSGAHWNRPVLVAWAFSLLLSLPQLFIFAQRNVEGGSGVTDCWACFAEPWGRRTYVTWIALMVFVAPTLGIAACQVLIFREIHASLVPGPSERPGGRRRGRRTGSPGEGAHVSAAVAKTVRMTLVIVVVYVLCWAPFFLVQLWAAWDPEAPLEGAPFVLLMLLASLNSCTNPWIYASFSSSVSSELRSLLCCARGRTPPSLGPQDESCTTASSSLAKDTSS
Neuronal acetylcholine receptor subunit alpha-4, sequence (P43681 whole entry): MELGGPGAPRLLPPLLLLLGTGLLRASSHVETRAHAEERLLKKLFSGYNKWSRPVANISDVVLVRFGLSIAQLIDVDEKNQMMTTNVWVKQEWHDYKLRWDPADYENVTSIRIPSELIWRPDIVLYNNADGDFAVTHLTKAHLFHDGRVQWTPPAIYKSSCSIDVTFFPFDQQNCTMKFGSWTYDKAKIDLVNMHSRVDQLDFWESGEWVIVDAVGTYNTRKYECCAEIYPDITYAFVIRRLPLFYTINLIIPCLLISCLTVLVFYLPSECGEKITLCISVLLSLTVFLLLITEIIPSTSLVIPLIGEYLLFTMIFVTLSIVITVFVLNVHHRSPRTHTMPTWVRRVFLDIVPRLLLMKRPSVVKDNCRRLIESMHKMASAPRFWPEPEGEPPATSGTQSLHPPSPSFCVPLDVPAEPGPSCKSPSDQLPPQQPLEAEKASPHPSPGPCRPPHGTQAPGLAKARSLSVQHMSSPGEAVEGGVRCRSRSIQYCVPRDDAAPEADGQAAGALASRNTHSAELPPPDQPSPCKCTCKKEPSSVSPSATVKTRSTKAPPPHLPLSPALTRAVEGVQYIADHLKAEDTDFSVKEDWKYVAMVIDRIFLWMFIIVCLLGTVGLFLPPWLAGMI
Histamine H2 receptor, sequence (P25021 whole entry): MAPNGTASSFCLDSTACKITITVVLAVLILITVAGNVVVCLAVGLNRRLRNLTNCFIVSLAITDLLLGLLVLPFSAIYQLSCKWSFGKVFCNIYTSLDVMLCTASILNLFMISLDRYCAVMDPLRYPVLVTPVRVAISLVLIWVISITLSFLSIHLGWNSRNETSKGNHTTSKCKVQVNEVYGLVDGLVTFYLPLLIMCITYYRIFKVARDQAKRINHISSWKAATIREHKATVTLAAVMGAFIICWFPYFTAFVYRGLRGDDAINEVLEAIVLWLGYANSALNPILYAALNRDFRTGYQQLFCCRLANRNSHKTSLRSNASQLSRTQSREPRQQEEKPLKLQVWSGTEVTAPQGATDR
cGMP-inhibited 3',5'-cyclic phosphodiesterase 3A, sequence (Q14432 whole entry): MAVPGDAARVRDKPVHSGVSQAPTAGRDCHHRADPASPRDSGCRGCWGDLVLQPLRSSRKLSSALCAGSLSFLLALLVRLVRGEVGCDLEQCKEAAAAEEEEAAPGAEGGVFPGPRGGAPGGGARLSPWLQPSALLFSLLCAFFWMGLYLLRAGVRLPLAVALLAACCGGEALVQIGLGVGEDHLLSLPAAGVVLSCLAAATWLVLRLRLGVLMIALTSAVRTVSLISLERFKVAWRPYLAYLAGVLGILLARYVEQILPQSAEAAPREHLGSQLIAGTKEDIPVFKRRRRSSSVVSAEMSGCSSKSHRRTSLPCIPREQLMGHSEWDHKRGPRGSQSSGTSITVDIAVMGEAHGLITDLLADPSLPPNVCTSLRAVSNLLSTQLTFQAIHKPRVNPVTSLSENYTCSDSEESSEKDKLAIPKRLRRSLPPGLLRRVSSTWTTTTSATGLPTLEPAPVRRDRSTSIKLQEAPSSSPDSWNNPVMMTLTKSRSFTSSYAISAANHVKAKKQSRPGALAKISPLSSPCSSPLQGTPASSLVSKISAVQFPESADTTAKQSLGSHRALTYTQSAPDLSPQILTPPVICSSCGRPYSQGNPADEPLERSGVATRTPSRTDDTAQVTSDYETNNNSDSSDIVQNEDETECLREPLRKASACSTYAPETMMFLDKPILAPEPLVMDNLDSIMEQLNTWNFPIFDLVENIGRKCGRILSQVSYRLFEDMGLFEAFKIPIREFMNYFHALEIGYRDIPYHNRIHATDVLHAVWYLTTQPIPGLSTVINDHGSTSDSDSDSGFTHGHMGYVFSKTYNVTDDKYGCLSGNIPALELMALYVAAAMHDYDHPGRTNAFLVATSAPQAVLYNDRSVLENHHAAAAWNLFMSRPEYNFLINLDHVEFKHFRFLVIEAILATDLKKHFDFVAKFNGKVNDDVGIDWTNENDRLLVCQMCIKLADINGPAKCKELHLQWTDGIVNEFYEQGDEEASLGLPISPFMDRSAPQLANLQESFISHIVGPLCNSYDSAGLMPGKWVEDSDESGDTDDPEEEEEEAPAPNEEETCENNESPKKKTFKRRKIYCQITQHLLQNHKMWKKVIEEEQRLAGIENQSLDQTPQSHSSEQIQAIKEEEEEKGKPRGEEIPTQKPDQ
3',5'-cyclic-AMP phosphodiesterase 4D, sequence (Q08499 whole entry): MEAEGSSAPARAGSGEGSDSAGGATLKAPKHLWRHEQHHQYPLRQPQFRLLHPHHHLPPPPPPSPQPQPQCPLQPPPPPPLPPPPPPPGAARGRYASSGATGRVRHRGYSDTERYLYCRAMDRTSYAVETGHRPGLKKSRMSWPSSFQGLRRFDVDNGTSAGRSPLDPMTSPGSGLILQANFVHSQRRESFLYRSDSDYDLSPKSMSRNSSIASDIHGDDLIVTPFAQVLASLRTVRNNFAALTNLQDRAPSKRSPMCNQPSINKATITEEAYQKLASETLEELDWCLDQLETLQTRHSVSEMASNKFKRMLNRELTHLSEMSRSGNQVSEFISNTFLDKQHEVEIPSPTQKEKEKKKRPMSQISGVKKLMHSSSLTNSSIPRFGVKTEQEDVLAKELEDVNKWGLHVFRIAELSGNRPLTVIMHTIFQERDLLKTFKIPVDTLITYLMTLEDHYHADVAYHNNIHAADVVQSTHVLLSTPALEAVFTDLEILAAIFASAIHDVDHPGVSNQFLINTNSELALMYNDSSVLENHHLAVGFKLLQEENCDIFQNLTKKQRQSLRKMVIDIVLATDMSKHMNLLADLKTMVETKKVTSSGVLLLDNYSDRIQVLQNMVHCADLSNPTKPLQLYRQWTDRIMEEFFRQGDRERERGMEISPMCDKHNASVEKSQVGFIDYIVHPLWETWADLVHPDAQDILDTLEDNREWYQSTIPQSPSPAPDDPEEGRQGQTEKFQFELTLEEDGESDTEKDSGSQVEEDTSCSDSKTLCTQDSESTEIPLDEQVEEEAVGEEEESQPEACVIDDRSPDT

Compound `O=C(/C=C/c1cccc(S(=O)(=O)Nc2ccccc2)c1)NO` [BELINOSTAT] has an AC50 [1] greater than 10 µM, an AC50 [2] greater than 30 µM and an AC50 (Mu-type opioid receptor) greater than 30 µM. For the same compound, the AC50 (Vasopressin V2 receptor) was greater than 30 µM, the AC50 [3] was greater than 30 µM and the AC50 [4] was greater than 30 µM. It also gave an AC50 (Adenosine receptor A1) greater than 30 µM, an AC50 [5] of 7.1 µM and an AC50 [6] greater than 10 µM.

`CC(O)(CS(=O)(=O)c1ccc(F)cc1)C(=O)Nc1ccc(C#N)c(C(F)(F)F)c1` (centres undefined) [BICALUTAMIDE] was tested, and the AC50 [1] was greater than 30 µM, the AC50 [2] was greater than 30 µM and the AC50 (Histamine H2 receptor) was greater than 10 µM. For the same compound, the AC50 (Mu-type opioid receptor) was greater than 30 µM, the AC50 (Vasopressin V2 receptor) was greater than 30 µM and the AC50 [3] was greater than 30 µM. It also gave an AC50 [4] greater than 10 µM, an AC50 (Adenosine receptor A1) greater than 30 µM and an AC50 [7] greater than 10 µM. For the same compound, the AC50 [5] was greater than 30 µM and the AC50 [6] was 13 µM.

In the case of `NC[C@H]1CC[C@H](C(=O)Oc2ccc(CCC(=O)O)cc2)CC1` [CETRAXATE], the AC50 (Histamine H2 receptor) was greater than 30 µM, the AC50 (Mu-type opioid receptor) was greater than 30 µM and the AC50 [4] was greater than 30 µM. The AC50 [7] was greater than 30 µM, the AC50 [5] was greater than 30 µM and the AC50 [6] was greater than 30 µM.

`N#Cc1ccc(Oc2ccc3c(c2)COB3O)cc1` [CRISABOROLE] showed an AC50 (Mu-type opioid receptor) greater than 30 µM, an AC50 [4] greater than 30 µM and an AC50 [5] of 0.8 µM.

`CC(=O)O[C@]1(C(C)=O)CC[C@H]2[C@@H]3C=C(Cl)C4=CC(=O)[C@@H]5C[C@@H]5[C@]4(C)[C@H]3CC[C@@]21C` [CYPROTERONE ACETATE] was tested, and the AC50 [1] was greater than 10 µM, the AC50 [2] was greater than 30 µM and the AC50 (Mu-type opioid receptor) was greater than 30 µM. The AC50 (Vasopressin V2 receptor) was greater than 30 µM, the AC50 [3] was greater than 30 µM and the AC50 [4] was greater than 30 µM. For the same compound, the AC50 (Adenosine receptor A1) was greater than 30 µM, the AC50 [5] was greater than 30 µM and the AC50 [6] was greater than 10 µM.

Work on `CC(=O)O[C@H]1Cc2ccccc2N(C(N)=O)c2ccccc21` [ESLICARBAZEPINE ACETATE] yielded an AC50 (Mu-type opioid receptor) greater than 30 µM.

`CC(O)(P(=O)(O)O)P(=O)(O)O` [ETIDRONIC ACID] was tested, and the AC50 (Mu-type opioid receptor) was greater than 30 µM.

`C[C@@H]1C[C@H]2[C@@H]3C[C@H](F)C4=CC(=O)C=C[C@]4(C)[C@@]3(F)[C@@H](O)C[C@]2(C)[C@@]1(OC(=O)c1ccco1)C(=O)SCF` [FLUTICASONE FUROATE] gave an AC50 [1] greater than 10 µM, an AC50 [2] greater than 10 µM and an AC50 (Histamine H2 receptor) greater than 10 µM. The AC50 (Mu-type opioid receptor) was greater than 30 µM, the AC50 (Vasopressin V2 receptor) was greater than 10 µM and the AC50 [3] was greater than 10 µM. It also gave an AC50 [4] greater than 30 µM, an AC50 (Adenosine receptor A1) greater than 10 µM and an AC50 [7] greater than 10 µM. The AC50 [5] was greater than 30 µM and the AC50 [6] was greater than 10 µM.

Compound `Cc1ccc(S(=O)(=O)NC(=O)NC2CCCCC2)cc1` [GLYCYCLAMIDE] has an AC50 (Mu-type opioid receptor) greater than 30 µM.

With `CN1CCCN(C(c2ccccc2)c2ccc(Cl)cc2)CC1` (centres undefined) [HOMOCHLORCYCLIZINE] the AC50 (Mu-type opioid receptor) was 7.4 µM.

`CC(=O)OCC(=O)[C@@]1(O)CC[C@H]2[C@@H]3CCC4=CC(=O)CC[C@]4(C)[C@H]3[C@@H](O)C[C@@]21C` [HYDROCORTISONE ACETATE] was tested, and the AC50 (Mu-type opioid receptor) was greater than 30 µM.

Work on `CC(COc1ccccc1)NC(C)C(O)c1ccc(O)cc1` (centres undefined) [ISOXSUPRINE] yielded an AC50 (Mu-type opioid receptor) of 8.69 µM.

`O=C(CCC/C=C\C[C@@H]1[C@@H](CC[C@@H](O)CCc2ccccc2)[C@H](O)C[C@@H]1O)OCCCCO[N+](=O)[O-]` [LATANOPROSTENE BUNOD] showed an AC50 (Mu-type opioid receptor) greater than 30 µM.

Work on `Cc1oc(=O)oc1COC(=O)[C@@H]1N2C(=O)[C@@H](NC(=O)[C@H](N)c3ccccc3)[C@H]2SC1(C)C` [LENAMPICILLIN] yielded an AC50 (Mu-type opioid receptor) greater than 30 µM.

In the case of `COc1ccc(OC)c(C(O)C(C)N)c1` (centres undefined) [METHOXAMINE], the AC50 (Mu-type opioid receptor) was greater than 30 µM.

For `CC1(CCN2CCCCC2)C(=O)CCc2ccccc21` (centres undefined) [NEPINALONE], the AC50 (Mu-type opioid receptor) was greater than 30 µM.
